Data published in patent US6462037B1, “1,4-benzodiazepin-2-ones useful as HIV reverse transcriptase inhibitors” (Bristol-Myers Squibb Pharma Company, priority 1999, dated 2002).

melting point [°C] | SMILES
66 to 67 | CCC(C)CCN1CC(=O)Nc2ccc(Cl)cc2C1C(F)(F)F (stereo not shown) [compound 125, 7-Chloro-4-(3-methylpentyl)-1,5-dihydro-5-(trifluoromethyl)-1,4-benzodiazepin-2-one]
173 to 174 | O=C1CN(Cc2cc(Br)cs2)C(C(F)(F)F)c2cc(Cl)ccc2N1 (stereo not shown) [compound 150, 7-Chloro-4-(4-bromothien-2-ylmethyl)-1,5-dihydro-5-(trifluoromethyl)-1,4-benzodiazepin-2-one]
150 to 153 | O=C1C=NC(/C=C/C2CC2)(C(F)(F)F)c2cc(Cl)ccc2N1 (stereo not shown) [compound 191, 7-Chloro-5-(2-cyclopropyl-E-ethenyl)-1,5-dihydro-5-(trifluoromethyl)-1,4-benzodiazepin-2-one]
83 to 84 | CCC=CCN1CC(=O)Nc2ccc(Cl)cc2C1C(F)(F)F (stereo not shown) [compound 153, 7-Chloro-4-(2-penten-1-yl)-1,5-dihydro-5-(trifluoromethyl)-1,4-benzodiazepin-2-one]
89 to 91 | O=C1CN(CCCc2ccccc2)C(C(F)(F)F)c2cc(Cl)ccc2N1 (stereo not shown) [compound 109, 7-Chloro-4-(3-phenylpropyl)-1,5-dihydro-5-(trifluoromethyl)-1,4-benzodiazepin-2-one]
135 to 136 | CN1CC(=O)Nc2ccc(Cl)cc2C1(C#CC1CC1)C(F)(F)F (stereo not shown) [compound 175, 7-Chloro-4-methyl-5-(cyclopropylethynyl)-1,5-dihydro-5-(trifluoromethyl)-1,4-benzodiazepin-2-one]
142 to 143 | CCCCCC1(C(F)(F)F)N=CC(=O)Nc2ccc(Cl)cc21 (stereo not shown) [compound 179, 7-Chloro-5-pentyl-1,5-dihydro-5-(trifluoromethyl)-1,4-benzodiazepin-2-one]
142 to 143 | O=C1CN(Cc2ccccc2)C(C(F)(F)F)c2cc(Cl)ccc2N1 (stereo not shown) [compound 110, 7-Chloro-4-benzyl-1,5-dihydro-5-(trifluoromethyl)-1,4-benzodiazepin-2-one]
185 to 187 | CC(C)C#CC1(C(F)(F)F)N=CC(=O)Nc2ccc(Cl)cc21 (stereo not shown) [compound 134, 7-Chloro-5-(3-methyl-1-butynyl)-1,5-dihydro-5-(trifluoromethyl)-1,4-benzodiazepin-2-one]
137 to 140 | O=C1C=NC(Cc2ccccn2)(C(F)(F)F)c2cc(Cl)ccc2N1 (stereo not shown) [compound 202, 7-Chloro-5-(2-pyridylmethyl)-1,5-dihydro-5-(trifluoromethyl)-1,4-benzodiazepin-2-one]
181 to 182 | CCC1=NC(C#CC2CC2)(C(F)(F)F)c2ccccc2NC1=O (stereo not shown) [compound 186, 3-Ethyl-5-(cyclopropylethynyl)-1,5-dihydro-5-(trifluoromethyl)-1,4-benzodiazepin-2-one]
160 to 162 | O=C1C=NC(Cc2ccccc2)(C(F)(F)F)c2cc(Cl)ccc2N1 (stereo not shown) [compound 190, 7-Chloro-5-benzyl-1,5-dihydro-5-(trifluoromethyl)-1,4-benzodiazepin-2-one]
184 to 186 | O=C1CN(Cc2cccc(Cl)n2)C(C(F)(F)F)c2cc(Cl)ccc2N1 (stereo not shown) [compound 105, 7-Chloro-4-(6-chloro-2-pyridylmethyl)-1,5-dihydro-5-(trifluoromethyl)-1,4-benzodiazepin-2-one]
94 to 96 | CCCCCN1CC(=O)Nc2ccc(Cl)cc2C1C(F)(F)F (stereo not shown) [compound 111, 7-Chloro-4-pentyl-1,5-dihydro-5-(trifluoromethyl)-1,4-benzodiazepin-2-one]
114 to 115 | CCC#CCN1CC(=O)Nc2ccc(Cl)cc2C1C(F)(F)F (stereo not shown) [compound 160, 7-Chloro-4-(2-pentynyl)-1,5-dihydro-5-(trifluoromethyl)-1,4-benzodiazepin-2-one]
196 to 198 | O=C1C=NC(C#Cc2cccs2)(C(F)(F)F)c2cc(Cl)ccc2N1 (stereo not shown) [compound 135, 7-Chloro-5-(2-thienylethynyl)-1,5-dihydro-5-(trifluoromethyl)-1,4-benzodiazepin-2-one]
200 to 205 | Cc1ccc(CN2CC(=O)Nc3ccc(Cl)cc3C2C(F)(F)F)nc1 (stereo not shown) [compound 104, 7-Chloro-4-(5-methyl-2-pyridylmethyl)-1,5-dihydro-5-(trifluoromethyl)-1,4-benzodiazepin-2-one]
185 to 187 | O=C1C=NC(C#CC2CC2)(C(F)(F)F)c2c(ccc(F)c2F)N1 (stereo not shown) [compound 195, 6,7-Difluoro-5-(2-cyclopropylethynyl)-1,5-dihydro-5-(trifluoromethyl)-1,4-benzodiazepin-2-one]
241 to 242 | N#Cc1cccc(CN2CC(=O)Nc3ccc(Cl)cc3C2C(F)(F)F)c1 (stereo not shown) [compound 120, 7-Chloro-4-(3-cyanobenzyl)-1,5-dihydro-5-(trifluoromethyl)-1,4-benzodiazepin-2-one]
138 to 139 | O=C1CN(CC#Cc2ccccc2)C(C(F)(F)F)c2cc(Cl)ccc2N1 (stereo not shown) [compound 154, 7-Chloro-4-(3-phenyl-2-propynyl)-1,5-dihydro-5-(trifluoromethyl)-1,4-benzodiazepin-2-one]

melting point [°C] | SMILES
103 to 104 | CCCCCC1(C(F)(F)F)N=C(C)C(=O)Nc2ccc(Cl)cc21 (stereo not shown) [compound 171, 7-Chloro-3-methyl-5-(4-methylbutyl)-1,5-dihydro-5-(trifluoromethyl)-1,4-benzodiazepin-2-one]
257 to 258 | O=C1CN(C(=O)c2ccccc2)C(C(F)(F)F)c2cc(Cl)ccc2N1 (stereo not shown) [compound 139, 7-Chloro-4-benzoyl-1,5-dihydro-5-(trifluoromethyl)-1,4-benzodiazepin-2-one]
113 to 116 | CCC(C)CCN1CC(=O)Nc2ccc(Cl)cc2C1C(F)(F)F (stereo not shown) [compound 131, 7-Chloro-4-(3-methylpentyl)-1,5-dihydro-5-(trifluoromethyl)-1,4-benzodiazepin-2-one]
152 to 155 | O=C1C=NC(CCC2CC2)(C(F)(F)F)c2cc(Cl)ccc2N1 (stereo not shown) [compound 193, 7-Chloro-5-(2-cyclopropylethyl)-1,5-dihydro-5-(trifluoromethyl)-1,4-benzodiazepin-2-one]
96 to 98 | CCCC#CCN1CC(=O)Nc2ccc(Cl)cc2C1C(F)(F)F (stereo not shown) [compound 129, 7-Chloro-4-(2-hexynyl)-1,5-dihydro-5-(trifluoromethyl)-1,4-benzodiazepin-2-one]
161 to 162 | O=C1CN(CCc2ccccc2Cl)C(C(F)(F)F)c2cc(Cl)ccc2N1 (stereo not shown) [compound 138, 7-Chloro-4-(2-(2-chlorophenyl)ethyl)-1,5-dihydro-5-(trifluoromethyl)-1,4-benzodiazepin-2-one]
184 to 185 | N#Cc1ccccc1CN1CC(=O)Nc2ccc(Cl)cc2C1C(F)(F)F (stereo not shown) [compound 116, 7-Chloro-4-(2-cyanobenzyl)-1,5-dihydro-5-(trifluoromethyl)-1,4-benzodiazepin-2-one]
148 to 150 | O=C1CN(Cc2ccsc2)C(C(F)(F)F)c2cc(Cl)ccc2N1 (stereo not shown) [compound 123, 7-Chloro-4-(3-thienylmethyl)-1,5-dihydro-5-(trifluoromethyl)-1,4-benzodiazepin-2-one]
171 to 172 | COc1cccc(CN2CC(=O)Nc3ccc(Cl)cc3C2C(F)(F)F)c1 (stereo not shown) [compound 118, 7-Chloro-4-(3-methoxybenzyl)-1,5-dihydro-5-(trifluoromethyl)-1,4-benzodiazepin-2-one]
104 to 105 | O=C1C=N[C@](C#CC2CC2)(C(F)(F)F)c2cc(Cl)ccc2N1 [compound 174, 7-Chloro-5(S)-(cyclopropylethynyl)-1,5-dihydro-5-(trifluoromethyl)-1,4-benzodiazepin-2-one]
123 to 125 | CCCCN1CC(=O)Nc2ccc(Cl)cc2C1(C#CC(C)C)C(F)(F)F (stereo not shown) [compound 136, 7-Chloro-4-butyl-5-(3-methyl-1-butynyl)-1,5-dihydro-5-(trifluoromethyl)-1,4-benzodiazepin-2-one]
118 to 119 | CC(C)CC1(C(F)(F)F)N=CC(=O)Nc2ccc(Cl)cc21 (stereo not shown) [compound 169, 7-Chloro-5-(2-methylpropyl)-1,5-dihydro-5-(trifluoromethyl)-1,4-benzodiazepin-2-one]
145 to 146 | COc1ccc2c(c1)C(C#CC1CC1)(C(F)(F)F)N=CC(=O)N2 (stereo not shown) [compound 198, 7-Methoxy-5-(cyclopropylethynyl)-1,5-dihydro-5-(trifluoromethyl)-1,4-benzodiazepin-2-one]
184 to 187 | O=C1CN(Cc2ccccn2)C(C(F)(F)F)c2cc(Cl)ccc2N1 (stereo not shown) [compound 102, 7-Chloro-4-(2-pyridylmethyl)-1,5-dihydro-5-(trifluoromethyl)-1,4-benzodiazepin-2-one]
161 to 162 | O=C1CN(Cc2ccccc2Br)C(C(F)(F)F)c2cc(Cl)ccc2N1 (stereo not shown) [compound 114, 7-Chloro-4-(2-bromobenzyl)-1,5-dihydro-5-(trifluoromethyl)-1,4-benzodiazepin-2-one]
182 to 183 | O=C1CN(Cc2cccc(F)c2F)C(C(F)(F)F)c2cc(Cl)ccc2N1 (stereo not shown) [compound 147, 7-Chloro-4-(2,3-difluorobenzyl)-1,5-dihydro-5-(trifluoromethyl)-1,4-benzodiazepin-2-one]
178 to 180 | O=C1C=NC(CCCC(F)(F)F)(C(F)(F)F)c2cc(Cl)ccc2N1 (stereo not shown) [compound 197, 7-Chloro-5-(4,4,4-trifluorobutyl)-1,5-dihydro-5-(trifluoromethyl)-1,4-benzodiazepin-2-one]
196 to 197 | Cc1cccc(F)c1CN1CC(=O)Nc2ccc(Cl)cc2C1C(F)(F)F (stereo not shown) [compound 180, 7-Chloro-4-(2-fluoro-6-methylbenzyl)-1,5-dihydro-5-(trifluoromethyl)-1,4-benzodiazepin-2-one]
170 to 171 | COc1ccc(F)c(F)c1CN1CC(=O)Nc2ccc(Cl)cc2C1C(F)(F)F (stereo not shown) [compound 157, 7-Chloro-4-(2,3-difluoro-6-methoxybenzyl)-1,5-dihydro-5-(trifluoromethyl)-1,4-benzodiazepin-2-one]
105 to 107 | O=C1CN(Cc2cccs2)C(C(F)(F)F)c2cc(Cl)ccc2N1 (stereo not shown) [compound 122, 7-Chloro-4-(2-thienylmethyl)-1,5-dihydro-5-(trifluoromethyl)-1,4-benzodiazepin-2-one]
